These results are taken from ChEMBL document CHEMBL1909499, “Protective effects of amentoflavone on Lamin A-dependent UVB-induced nuclear aberration in normal human fibroblasts” (Bioorg Med Chem Lett, 2011).

The nature of data set [1]: Cytotoxicity against human UVB-induced fibroblasts assessed as cell viability. The class given is cell-based. The settings on record: fibroblast.
Data set [2] concerns Fibroblast. In words: Antiaging activity in human fibroblasts assessed as reduction of UVB-induced nucleus deformation after 6 days by confocal microscopy analysis. The class given is functional, cell-based.
For data set [3], the system named is Fibroblast. In words: Antiaging activity in fibroblasts isolated from human assessed as reduction in UVB-induced phospho-H2AX protein level after 6 days by Western blotting method. The format is functional, cell-based. (A western blot detects proteins with antibodies after separation by electrophoresis.)
Data set [4] deals with Fibroblast. In words: Antiaging activity in human fibroblasts assessed as reduction in UVB-induced phospho-H2AX protein level after 6 days by confocal microscopy analysis. The class given is functional, cell-based.
Data set [5] deals with Fibroblast. In words: Antiaging activity in human fibroblasts assessed as reduction in UVB-induced phospho-H2AX protein level after 6 days by Western blotting method. The class given is functional, cell-based.
Data set [6] concerns Fibroblast. In words: Antiaging activity in human fibroblasts assessed as reduction in UVB-induced lamin A protein level after 6 days by Western blot method. The class given is functional, cell-based.

Active and inactive are the calls of the source. No cut-off for these calls is given here.

For `O=c1cc(-c2ccc(O)c(-c3c(O)cc(O)c4c(=O)cc(-c5ccc(O)cc5)oc34)c2)oc2cc(O)cc(O)c12` [AMENTOFLAVONE], the Activity result was “Non-toxic” in data set [1], “Dose-dependent effect” with Fibroblast [3], “Dose-dependent effect” in the data set with Fibroblast [5] and “Dose-dependent effect” in the data set with Fibroblast [6]. In addition, the outcome in the data set with Fibroblast [2] and in the data set on Fibroblast [4] was Active.
